Reference: paper PMC12111564, “Extended Family of Thiophosphoryl-Appended Pd(II) Pincer Complexes with a Deprotonated Amide Core: Synthesis and Biological Evaluation” (International Journal of Molecular Sciences, 2025)
Where two headings read alike, the source gives them in different places.

How the values were obtained:
[1] = tested on: acute lymphoblastic leukemia (H9); design: method as in PMID 37818804; details: MTT; read-out: IC50 ± SD, H9; cited from earlier work
[2] = tested on: prostate adenocarcinoma (PC3); design: method as in PMID 37818804; details: MTT; read-out: IC50 ± SD, PC3; cited from earlier work
[3] = tested on: human embryonic kidney (HEK293); design: method as in PMID 37818804; details: MTT; read-out: IC50 ± SD, HEK293; cited from earlier work
[4] = tested on: doxorubicin-resistant subline of chronic myelogenous leukemia cells (K562/iS9); details: MTT; read-out: IC50 ± SD, K562/iS9; cited from earlier work
[5] = tested on: mammary epithelial cells HBL100; design: method as in PMID 37818804; details: MTT; read-out: IC50 ± SD, HBL100; cited from earlier work
[6] = tested on: human colorectal carcinoma (HCT116); design: method as in PMID 37818804; details: MTT; read-out: IC50 ± SD, HCT116; cited from earlier work
breast cancer (MCF7) [7] = tested on: breast cancer (MCF7); design: method as in PMID 37818804; details: MTT; read-out: IC50 ± SD, MCF7; cited from earlier work
[8] = tested on: multiple plasmacytoma (AMO1); design: method as in PMID 37818804; details: MTT; read-out: IC50 ± SD, AMO1; cited from earlier work
[9] = tested on: ovarian adenocarcinoma (Scov3); test: MTT cytotoxicity assay, Scov3; assay type: cell-based, human
Description: (§1) The cytotoxic activity of the complexes obtained was screened against several human solid and hematopoietic cancer cell lines using the conventional MTT assay. To evaluate their selectivity for cancerous over non-cancerous cells, analogous tests were performed with pseudonormal human embryonic kidney (HEK293) and breast epithelial (HBL100) cell lines.
(§2) The cytotoxicity of the compounds obtained was investigated on human colorectal carcinoma (HCT116), breast cancer (MCF7), prostate adenocarcinoma (PC3), glioblastoma (U251), ovarian adenocarcinoma (Scov3), chronic myelogenous leukemia (K562 and K562/iS9), multiple plasmacytoma (AMO1), and acute lymphoblastic leukemia (H9) cell lines, as well as human embryonic kidney (HEK293) and mammary epithelial (HBL100 and HBL100/Dox) cells used as non-cancerous cell lineages. All the cell lines were obtained from American Type Culture Collection (ATCC). The tested compounds were initially dissolved in DMSO. Cisplatin was obtained from a commercial source (as an infusion concentrate in natural saline solution). The experiments were performed using the conventional MTT assay (ICN Biomedicals, Eschwege, Germany) according to the previously published procedure.

[10] = tested on: doxorubicin-resistant mammary epithelial cells HBL100/Dox; details: MTT; read-out: IC50 ± SD, HBL100/Dox; cited from earlier work
[11] = tested on: chronic myelogenous leukemia (K562); design: method as in PMID 37818804; details: MTT; read-out: IC50 ± SD, K562; cited from earlier work
glioblastoma (U251) = test: MTT cytotoxicity assay, U251; assay type: cell-based, human
Description: as §1, §2

[12] = tested on: Groenewaldozyma auringiensis (VKM Y-2927); test: Agar well diffusion, G. auringiensis; assay type: cell-based; details: 10 µL per well, 28 °C, 24 h
Description: (§3) The microbial strains Bacillus subtillis (VKM B-501), Micrococcus luteus (VKM Ac-2230), and Groenewaldozyma auringiensis (VKM Y-2927) were used for antimicrobial activity tests. All strains were obtained from the All-Russian Collection of Microorganisms (VKM) at the Skryabin Institute of Biochemistry and Physiology of Microorganisms, Pushchino Scientific Center of Biological Research. B. subtilis and M. luteus were grown on the following medium (g/L): aminopeptide 60 mL; tryptone 5.0 g; yeast extract 1.0 g; soybean extract 30 mL; bacto-agar 15.0 g; final pH 7.2. G. auringiensis was grown on malt extract medium containing the following medium (g/L): malt extract 12.75; dextrin 2.75; glycerol 2.35; gelatin peptone 0.78; bacto-agar 15; final pH 5.4. The antimicrobial activity of ligand 17 and its cyclopalladated derivative 18 (both in the racemic form) was studied by the agar well diffusion method. The overnight grown culture of each strain (100 µL) was applied to the surface of the solid medium, then spread on agar plates using a glass spreader, and left for 30 min. The wells were cut in the culture plates using a sterilized glass tube (4 mm in diameter), and each compound sample was dissolved in DMSO to a final concentration of 0.25 or 2.5 mM (10 µL) and was placed in each well. After this, the plates were kept at room temperature for 3 h to improve the diffusion of the compounds and incubated at 28 °C for 24 h. DMSO (15%) was used as a negative control, while kanamycin (50 mg/mL) was used as a positive control. The antimicrobial activity was determined by measuring the inhibition zone around each well as a mean of three replicates.

[13] = tested on: prostate adenocarcinoma (PC3); test: MTT cytotoxicity assay, PC3; assay type: cell-based, human; details: 48 h exposure, read-out: IC50 ± SD, PC3
Description: as §1, §2

[14] = tested on: doxorubicin-resistant subline of chronic myelogenous leukemia cells (K562/iS9); test: MTT cytotoxicity assay, K562/iS9; assay type: cell-based, human; details: 48 h exposure, read-out: IC50 ± SD, K562/iS9
Description: as §1, §2

K562 cells = test: Apoptosis induction, Annexin V-FITC/PI flow cytometry, K562; assay type: cell-based, human; details: 10 μM, 20 h
Excerpt: (§4) To our delight, in general the biological profile of complex (R)-18 appeared to be close to that of the previously reported phenyl-substituted counterpart (compare entries 10 and 1 in Table 1 and entries 6 and 1 in Table 2), with a lower activity on HCT116 and PC3 cells but remarkably higher selectivity towards K562 cells over non-cancerous HEK293 cells. […] The total percentage of early (lower right quadrant) and late (upper right quadrant) apoptotic cells for (R)-18 on K562/iS9 subline was even higher than in the parental cells. These findings prompted us to gain further insight into the bioactivity of the Pd(II) pincer complexes of thiophosphoryl-functionalized amides from the viewpoint of their potential to overcome drug resistance.
(§5) The apoptosis-inducing ability of enantiomerically pure and racemic complexes 18 was studied on K562 and K562/iS9 cells that were cultured in a medium containing 10 μM of the tested palladocycle for 20 h. The experiments were performed following the published procedure. The analysis was carried out on a FACScan flow cytometer (Becton Dickinson, Franklin Lakes, NJ, USA) using the CellQuest software (version 3.3).

[15] = tested on: chronic myelogenous leukemia (K562); test: MTT cytotoxicity assay, K562; assay type: cell-based, human; details: 48 h exposure, read-out: IC50 ± SD, K562
Description: as §1, §2

[16] = tested on: acute lymphoblastic leukemia (H9); test: MTT cytotoxicity assay, H9; assay type: cell-based, human; details: 48 h exposure, read-out: IC50 ± SD, H9
Description: as §1
as §2, with “Cisplatin was obtained from a commercial source (as an infusion concentrate in natural saline solution).” left out

[17] = tested on: mammary epithelial cells HBL100; test: MTT cytotoxicity assay, HBL100; assay type: cell-based, human; details: 48 h exposure, non-cancerous cells, read-out: IC50 ± SD, HBL100
Description: as §1, §2

K562/iS9 cells = test: Apoptosis induction, Annexin V-FITC/PI flow cytometry, K562/iS9; assay type: cell-based, human; details: 10 μM, 20 h
Excerpt: as §4, §5

[18] = tested on: human embryonic kidney (HEK293); test: MTT cytotoxicity assay, HEK293; assay type: cell-based; details: 48 h exposure, non-cancerous cells, read-out: IC50 ± SD, HEK293
Description: as §1, §2

[19] = tested on: multiple plasmacytoma (AMO1); test: MTT cytotoxicity assay, AMO1; assay type: cell-based, human; details: 48 h exposure, read-out: IC50 ± SD, AMO1
Description: as §1, §2

[20] = tested on: human colorectal carcinoma (HCT116); test: MTT cytotoxicity assay, HCT116; assay type: cell-based; details: 48 h exposure, read-out: IC50 ± SD, HCT116
Description: as §1, §2

[21] = tested on: doxorubicin-resistant mammary epithelial cells HBL100/Dox; test: MTT cytotoxicity assay, HBL100/Dox; assay type: cell-based, human; details: 48 h exposure, doxorubicin-resistant clone, read-out: IC50 ± SD, HBL100/Dox
Description: as §1, §2

[22] = tested on: Micrococcus luteus (VKM Ac-2230); test: Agar well diffusion, M. luteus; assay type: cell-based; details: 10 µL per well, 28 °C, 24 h
Description: as §3

[23] = tested on: Bacillus subtillis (VKM B-501); test: Agar well diffusion, B. subtillis; assay type: cell-based; details: 10 µL per well, 28 °C, 24 h
Description: as §3

breast cancer (MCF7) [24] = test: MTT cytotoxicity assay, MCF7; assay type: cell-based, human; details: 48 h exposure, read-out: IC50 ± SD, MCF7
Description: as §1, §2

solid cancer cells = test: MTT cytotoxicity assay, solid cancer cells; assay type: cell-based, human; details: inactive at concentrations up to
Description: as §1, §2

[25] = tested on: hematopoietic cancer cells; test: MTT cytotoxicity assay, hematopoietic cancer cells; assay type: cell-based, human; details: inactive at concentrations up to
Description: as §1, §2

P-glycoprotein (P-gp) = target: T1, P-glycoprotein (P-gp) (Homo sapiens, UniProt P08183); test: P-gp functional activity, Rh123 efflux from K562/iS9 cells; assay type: cell-based; details: 20 μM of complex, 37 °C, 30 min, flow cytometry
T1 construct: We assessed the efflux of the fluorescent dye Rhodamine 123 (Rh123) from cells with a high P-gp content—K562/iS9 cells; endogenous in cells; host or cells: K562/iS9 (doxorubicin-resistant subline of K562)
T1 sequence (P08183 whole entry): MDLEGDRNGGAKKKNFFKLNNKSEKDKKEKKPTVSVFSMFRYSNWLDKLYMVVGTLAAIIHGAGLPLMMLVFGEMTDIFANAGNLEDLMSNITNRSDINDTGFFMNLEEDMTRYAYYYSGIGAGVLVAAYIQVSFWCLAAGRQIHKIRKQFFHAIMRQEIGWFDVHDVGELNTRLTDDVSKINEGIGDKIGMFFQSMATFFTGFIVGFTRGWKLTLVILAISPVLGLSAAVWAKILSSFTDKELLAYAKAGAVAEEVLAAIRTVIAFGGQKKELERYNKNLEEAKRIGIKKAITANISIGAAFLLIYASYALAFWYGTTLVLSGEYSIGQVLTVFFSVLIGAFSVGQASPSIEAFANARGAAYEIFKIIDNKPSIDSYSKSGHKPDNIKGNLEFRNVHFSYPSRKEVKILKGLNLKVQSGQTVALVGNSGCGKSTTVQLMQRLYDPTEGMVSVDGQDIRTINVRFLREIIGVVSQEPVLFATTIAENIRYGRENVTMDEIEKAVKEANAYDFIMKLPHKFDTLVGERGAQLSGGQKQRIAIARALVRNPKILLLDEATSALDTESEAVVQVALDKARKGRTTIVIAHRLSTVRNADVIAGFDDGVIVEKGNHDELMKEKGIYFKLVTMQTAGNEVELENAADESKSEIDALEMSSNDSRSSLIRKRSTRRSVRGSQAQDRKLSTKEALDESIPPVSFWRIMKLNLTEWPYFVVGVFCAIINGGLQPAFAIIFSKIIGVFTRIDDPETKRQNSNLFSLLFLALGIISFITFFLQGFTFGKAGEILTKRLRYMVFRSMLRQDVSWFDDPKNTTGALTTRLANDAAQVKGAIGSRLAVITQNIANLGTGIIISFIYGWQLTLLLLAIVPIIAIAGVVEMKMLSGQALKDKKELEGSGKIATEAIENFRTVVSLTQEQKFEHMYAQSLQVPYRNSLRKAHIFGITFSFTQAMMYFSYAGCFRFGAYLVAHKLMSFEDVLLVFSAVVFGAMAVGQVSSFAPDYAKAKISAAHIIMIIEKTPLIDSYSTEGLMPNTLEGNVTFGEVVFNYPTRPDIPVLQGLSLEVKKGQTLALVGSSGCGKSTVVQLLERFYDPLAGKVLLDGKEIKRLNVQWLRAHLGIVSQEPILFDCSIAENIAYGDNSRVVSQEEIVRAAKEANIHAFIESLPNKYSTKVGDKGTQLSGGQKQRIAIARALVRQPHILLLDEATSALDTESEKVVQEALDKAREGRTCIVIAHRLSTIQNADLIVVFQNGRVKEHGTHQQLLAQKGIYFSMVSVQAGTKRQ
Description: We assessed the efflux of the fluorescent dye Rhodamine 123 (Rh123) from cells with a high P-gp content—K562/iS9 cells [31].
The functional activity of P-gp was evaluated by the method described earlier [40]. K562/iS9 cells (3 × 10^6) were incubated for 15 min in a culture medium containing 5 μg/mL of Rh123 (Sigma-Aldrich, St. Louis, MO, USA). After incubation, the cells were washed twice and divided into several fractions. […] The incubation was carried out in the full culture medium at 37 °C for 30 min. […] The cell fluorescence was evaluated using a flow cytometer (Becton Dickinson). The results were analyzed using the CellQuest software.

SMILES: O=C1c2cccc[n+]2[Pd-2]2([Cl])[S+]=P(c3ccccc3)(c3ccccc3)C(c3ccccc3)[N]12 (racemic) [Ia]
- IC50 [1]: 3.2 ± 0.4 µM
- IC50 [2]: 4 ± 0.4 µM
- IC50 [3]: 6.2 ± 0.5 µM
- IC50 [4]: 5.8 ± 1.2 µM
- IC50 [5]: 16 ± 0.5 µM
- IC50 [6]: 3 ± 0.5 µM
- IC50 (breast cancer (MCF7) [7]): 10 ± 2.5 µM
- IC50 [8]: 2.4 ± 0.3 µM
- IC50 [9]: 30 ± 2 µM
- IC50 [10]: 34 ± 4 µM
- IC50 [11]: 7.4 ± 0.4 µM
- IC50 (glioblastoma (U251)): 34 ± 4 µM

SMILES: CC(C)C1[N]2C(=O)c3cccc[n+]3[Pd-2]2([Cl])[S+]=P1(c1ccccc1)c1ccccc1 (racemic) [Compound 18]
- Inhibition Zone, G. auringiensis (VKM Y-2927) ([12]; 0.25 mM): 0 mm
- Inhibition Zone, G. auringiensis (VKM Y-2927) ([12]; 2.50 mM): 0 mm
- IC50 [13]: 11.5 ± 1.5 µM
- IC50 [14]: 6.4 ± 1.7 µM
- percentage of necrotic cells (upper left), K562 (K562 cells): 0.2%
- IC50 [15]: 4.8 ± 1.2 µM
- IC50 [16]: 3.4 ± 0.1 µM
- IC50 [17]: 14 ± 1.4 µM
- percentage of necrotic cells (upper left), K562/iS9 (K562/iS9 cells): 0.4%
- IC50 [18]: 9.5 ± 1.8 µM
- IC50 [19]: 3 ± 1.2 µM
- IC50 [20]: 9.2 ± 1.8 µM
- IC50 [21]: 23.3 ± 2.7 µM
- Inhibition Zone, M. luteus (VKM Ac-2230) ([22]; 0.25 mM): 0.5 ± 0.3 mm
- Inhibition Zone, M. luteus (VKM Ac-2230) ([22]; 2.50 mM): 4.0 ± 0.5 mm
- Inhibition Zone, B. subtillis (VKM B-501) ([23]; 0.25 mM): 0.5 ± 0.2 mm
- Inhibition Zone, B. subtillis (VKM B-501) ([23]; 2.50 mM): 0.5 ± 0.2 mm
- IC50 (breast cancer (MCF7) [24]): 19.2 ± 1.3 µM

SMILES: N#Cc1ccccc1.N#Cc1ccccc1.[Cl][Pd][Cl] [PdCl2(NCPh)2]
- concentration up to which inactive, solid cancer cells (solid cancer cells): > 60 µM
- concentration up to which inactive, hematopoietic cancer cells [25]: > 40 µM

SMILES: COc1cc2c(cc1OC)CN(CCc1ccc(NC(=O)c3cccc4c(=O)c5cccc(OC)c5[nH]c34)cc1)CC2 [elacridar]
- effect on Rh123 efflux / interaction with P-gp (P-glycoprotein (P-gp)): almost completely blocks the efflux of Rh123
